Source: ChEMBL document CHEMBL4334512, “Rationally Designed, Conformationally Constrained Inverse Agonists of RORγt-Identification of a Potent, Selective Series with Biologic-Like in Vivo Efficacy” (J Med Chem, 2019)

Tests used:
[1] = Half life in human liver microsomes; type: ADME, Microsome
[2] = Half life in rat liver microsomes; type: ADME, Microsome
[3] = Half life in mouse liver microsomes; type: ADME, Microsome
[4] = Unbound fraction in human serum; type: ADME, cell-free
[5] = target: T1, Nuclear receptor subfamily 1 group I member 2 (Homo sapiens, UniProt O75469); test: Activity at PXR (unknown origin)
T1 sequence (O75469 whole entry): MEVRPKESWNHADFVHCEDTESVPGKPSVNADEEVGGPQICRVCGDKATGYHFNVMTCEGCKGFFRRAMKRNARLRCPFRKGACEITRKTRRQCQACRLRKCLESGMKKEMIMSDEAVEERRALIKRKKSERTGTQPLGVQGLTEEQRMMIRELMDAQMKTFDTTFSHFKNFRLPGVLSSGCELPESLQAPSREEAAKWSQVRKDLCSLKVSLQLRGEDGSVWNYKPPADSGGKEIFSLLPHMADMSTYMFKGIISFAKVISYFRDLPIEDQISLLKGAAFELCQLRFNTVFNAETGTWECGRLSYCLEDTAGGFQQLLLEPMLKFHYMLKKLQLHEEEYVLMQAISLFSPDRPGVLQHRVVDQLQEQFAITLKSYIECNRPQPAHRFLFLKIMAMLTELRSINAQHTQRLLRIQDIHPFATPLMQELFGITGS

[6] = target: T2, Nuclear receptor ROR-alpha (Homo sapiens, UniProt P35398); test: Activity at RORalpha (unknown origin)
T2 sequence (P35398 whole entry): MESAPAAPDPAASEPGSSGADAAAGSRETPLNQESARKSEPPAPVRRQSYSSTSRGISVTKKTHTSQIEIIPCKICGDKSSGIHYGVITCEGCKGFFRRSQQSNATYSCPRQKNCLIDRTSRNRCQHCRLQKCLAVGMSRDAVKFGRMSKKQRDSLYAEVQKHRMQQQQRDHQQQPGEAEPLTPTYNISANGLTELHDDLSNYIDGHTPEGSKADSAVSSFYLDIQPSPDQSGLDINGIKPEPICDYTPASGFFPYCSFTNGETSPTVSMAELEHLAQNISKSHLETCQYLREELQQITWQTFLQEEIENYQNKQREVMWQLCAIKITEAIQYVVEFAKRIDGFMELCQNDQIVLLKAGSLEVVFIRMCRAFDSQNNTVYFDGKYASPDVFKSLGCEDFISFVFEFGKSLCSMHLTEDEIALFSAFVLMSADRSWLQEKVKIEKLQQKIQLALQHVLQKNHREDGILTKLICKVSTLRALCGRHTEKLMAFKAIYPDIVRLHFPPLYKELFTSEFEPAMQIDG

[7] = target: T3, Nuclear receptor ROR-beta (Homo sapiens, UniProt Q92753); test: Activity at RORbeta (unknown origin)
T3 sequence (Q92753 whole entry): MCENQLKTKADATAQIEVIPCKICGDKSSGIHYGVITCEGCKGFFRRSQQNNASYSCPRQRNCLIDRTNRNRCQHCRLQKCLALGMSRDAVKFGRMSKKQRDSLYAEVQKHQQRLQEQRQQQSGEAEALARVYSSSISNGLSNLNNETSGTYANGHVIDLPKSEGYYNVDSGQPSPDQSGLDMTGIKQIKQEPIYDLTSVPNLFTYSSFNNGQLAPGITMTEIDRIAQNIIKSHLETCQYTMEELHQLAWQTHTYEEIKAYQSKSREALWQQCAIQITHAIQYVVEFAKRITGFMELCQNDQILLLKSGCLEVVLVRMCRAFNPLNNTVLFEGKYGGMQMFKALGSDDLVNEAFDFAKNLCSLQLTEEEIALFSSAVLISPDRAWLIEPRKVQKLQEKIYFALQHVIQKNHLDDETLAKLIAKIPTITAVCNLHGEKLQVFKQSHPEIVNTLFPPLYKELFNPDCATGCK

[8] = target: T4, Oxysterols receptor LXR-alpha (Homo sapiens, UniProt Q13133); test: Activity at LXRalpha (unknown origin)
T4 sequence (Q13133 whole entry): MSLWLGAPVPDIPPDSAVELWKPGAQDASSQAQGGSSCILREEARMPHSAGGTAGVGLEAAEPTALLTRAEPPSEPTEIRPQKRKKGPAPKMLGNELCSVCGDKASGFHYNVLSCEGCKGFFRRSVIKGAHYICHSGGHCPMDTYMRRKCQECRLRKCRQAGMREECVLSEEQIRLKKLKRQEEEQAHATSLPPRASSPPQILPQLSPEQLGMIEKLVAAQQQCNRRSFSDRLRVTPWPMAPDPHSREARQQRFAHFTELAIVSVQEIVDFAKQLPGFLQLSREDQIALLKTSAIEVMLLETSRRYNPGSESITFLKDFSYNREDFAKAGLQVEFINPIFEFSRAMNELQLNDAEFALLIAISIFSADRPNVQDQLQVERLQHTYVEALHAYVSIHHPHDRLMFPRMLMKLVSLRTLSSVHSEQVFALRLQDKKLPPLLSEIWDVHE

[9] = target: T5, Oxysterols receptor LXR-beta (Homo sapiens, UniProt P55055); test: Activity at LXRbeta (unknown origin)
T5 sequence (P55055 whole entry): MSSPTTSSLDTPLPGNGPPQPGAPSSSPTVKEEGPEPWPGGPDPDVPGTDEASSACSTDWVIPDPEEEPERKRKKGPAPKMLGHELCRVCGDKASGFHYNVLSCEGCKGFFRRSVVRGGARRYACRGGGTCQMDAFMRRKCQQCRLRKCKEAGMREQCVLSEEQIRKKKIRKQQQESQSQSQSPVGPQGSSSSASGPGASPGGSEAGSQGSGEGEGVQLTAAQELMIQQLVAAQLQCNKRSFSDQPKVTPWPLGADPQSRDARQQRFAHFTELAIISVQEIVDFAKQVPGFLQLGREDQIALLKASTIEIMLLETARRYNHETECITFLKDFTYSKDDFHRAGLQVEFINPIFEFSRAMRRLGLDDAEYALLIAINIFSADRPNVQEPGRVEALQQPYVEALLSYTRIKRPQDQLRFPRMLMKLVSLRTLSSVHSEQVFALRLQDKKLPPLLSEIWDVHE

[10] = Cmax in Balb/c mouse at 10 mg/kg, po; type: ADME, organism-based; design: dose 10 mg/kg, route oral; settings: in vivo
[11] = Drug level in Balb/c mouse at 10 mg/kg, po after 24 hrs; type: ADME, organism-based; settings: in vivo, read-out: Drug uptake
[12] = target: T6, Nuclear receptor ROR-gamma (Homo sapiens, UniProt P51449); test: Inverse agonist activity at full length human RORgammat expressed in human Jurkat cells assessed as inhibition of constitutive receptor activity incubated for 18 hrs by Gal4-Luc reporter gene assay; type: cell-based
T6 sequence (P51449 whole entry): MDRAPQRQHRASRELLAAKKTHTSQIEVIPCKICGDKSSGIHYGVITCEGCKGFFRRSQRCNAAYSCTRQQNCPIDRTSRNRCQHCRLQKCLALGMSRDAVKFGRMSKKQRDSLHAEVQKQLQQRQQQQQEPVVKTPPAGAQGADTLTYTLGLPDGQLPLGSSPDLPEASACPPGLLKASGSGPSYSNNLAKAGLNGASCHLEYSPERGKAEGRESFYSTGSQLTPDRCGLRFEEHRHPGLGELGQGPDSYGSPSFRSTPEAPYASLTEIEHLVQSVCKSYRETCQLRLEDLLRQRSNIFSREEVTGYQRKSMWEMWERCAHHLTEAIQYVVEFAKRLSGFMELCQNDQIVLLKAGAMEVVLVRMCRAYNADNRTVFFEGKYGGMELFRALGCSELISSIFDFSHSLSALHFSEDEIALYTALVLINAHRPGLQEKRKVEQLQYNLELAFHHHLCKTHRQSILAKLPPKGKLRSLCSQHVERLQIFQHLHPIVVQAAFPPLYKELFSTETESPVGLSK

[13] = target: T6, Nuclear receptor ROR-gamma; test: Inverse agonist activity at RORgammat in CD3 and CD28-stimulated human whole blood assessed as reduction in IL17A production incubated for 1 hr before CD3 and CD28 stimulation for 20 hrs by AlphaLISA method; type: tissue-based

Row | Structure (SMILES) | half-life [1] | half-life [2] | half-life [3] | fraction unbound [4] | IC50 [5] | IC50 [6] | IC50 [7] | IC50 [8] | IC50 [9] | Cmax [10] | concentration at 24 h [11] | EC50 [12] | EC50 [13]
1 | CN1C[C@H]2N(C(=O)[C@H]3CC[C@H](C(=O)O)CC3)CC[C@@]2(S(=O)(=O)c2ccc(F)cc2)c2ccc(C(F)(C(F)(F)F)C(F)(F)F)cc21 | > 2 h | > 2 h | > 2 h | 0.024 | > 40 µM | > 10 µM | > 10 µM | > 10 µM | > 10 µM | 10 µM | 0.71 µM | – | –
2 | O=C(O)C12CCC(C(=O)N3CC[C@@]4(S(=O)(=O)c5ccc(F)cc5)c5ccc(C(F)(C(F)(F)F)C(F)(F)F)cc5CC[C@@H]34)(CC1)CC2 | > 2 h | > 2 h | > 2 h | – | > 40 µM | > 10 µM | > 10 µM | > 10 µM | > 10 µM | 9.3 µM | 1 µM | – | –
3 | O=C(O)[C@H]1CC[C@H](C(=O)N2CC[C@@]3(S(=O)(=O)c4ccc(F)cc4)c4ccc(C(F)(C(F)(F)F)C(F)(F)F)cc4CC[C@@H]23)CC1 | > 2 h | > 2 h | > 2 h | – | > 40 µM | > 10 µM | > 10 µM | > 10 µM | > 10 µM | 8.6 µM | 1.6 µM | – | –
4 | CCN1C[C@H]2N(C(=O)[C@H]3CC[C@H](C(=O)O)CC3)CC[C@@]2(S(=O)(=O)c2ccc(F)cc2)c2ccc(C(F)(C(F)(F)F)C(F)(F)F)cc21 | > 2 h | > 2 h | > 2 h | 0.005 | > 40 µM | > 10 µM | > 10 µM | > 10 µM | > 10 µM | 13 µM | 3 µM | – | –
5 | CN1C[C@H]2N(C(=O)C3(O)CCS(=O)(=O)CC3)CC[C@@]2(S(=O)(=O)c2ccc(F)cc2)c2ccc(C(F)(C(F)(F)F)C(F)(F)F)cc21 | > 2 h | 1.4 h | 0.433 h | 0.003 | > 40 µM | > 10 µM | > 10 µM | > 10 µM | > 10 µM | – | – | 0.02 µM | 0.083 µM
6 | O=C(O)[C@H]1CC[C@](F)(C(=O)N2CC[C@@]3(S(=O)(=O)c4ccc(F)cc4)c4ccc(C(F)(C(F)(F)F)C(F)(F)F)cc4CC[C@@H]23)CC1 | > 2 h | > 2 h | > 2 h | – | > 40 µM | > 10 µM | > 10 µM | > 10 µM | > 10 µM | – | – | 0.015 µM | 0.046 µM
7 | O=C(O)[C@H]1CC[C@H](C(=O)N2CC[C@@]3(S(=O)(=O)c4ccccc4)c4ccc(C(F)(C(F)(F)F)C(F)(F)F)cc4CC[C@@H]23)CC1 | > 2 h | > 2 h | > 2 h | – | > 40 µM | > 10 µM | > 10 µM | > 10 µM | > 10 µM | 6.9 µM | 0.74 µM | – | –
